# Test results taken from article PMC5995184, “Potent anti-leukemic activity of a specific cyclin-dependent kinase 9 inhibitor in mouse models of chronic lymphocytic leukemia” (Oncotarget, 2018).
# Where two headings read alike, the source gives them in different places.
# Tests used:
# CDK2-Cyclin A = biological target: T1, CDK2-Cyclin A (Homo sapiens, UniProt P24941); experiment: FRET-based LANCE Ultra in vitro enzymatic kinase assay, CDK2; type: biochemical
# T1 construct: purchased ProQinase
# Protocol: (§1) IC50 values for CDK inhibitors were determined using the fluorescence resonance energy transfer (FRET)-based LANCE Ultra KinaSelect Ser/Thr kit (Perkin Elmer). Kinase activity and inhibition were measured according to the manufacturer’s instructions and as previously described. […] FRET signals were recorded in a time-resolved manner in a Perkin Elmer EnVision reader. Purified cyclin-kinase pairs were obtained from the following suppliers: Carna Biosciences (CDK1-Cyclin B1, CDK6-Cyclin D3, CDK7-Cyclin H-MAT1), ProQinase (CDK2-Cyclin A) and Invitrogen (CDK9-Cyclin T1).
# (§2) Data were analyzed with GraphPad Prism 7 software. Differences were assessed by unpaired or paired Student t tests if not indicated otherwise. Two-sided probabilities of less than 0.05 were considered significant. Nonlinear regression sigmoidal dose-response curve fit was used to determine the IC50 values and to generate graphs.
# CDK6-Cyclin D3 [1] = biological target: T2, CDK6-Cyclin D3 (Homo sapiens, UniProt Q00534); experiment: FRET-based LANCE Ultra in vitro enzymatic kinase assay, CDK6; type: biochemical
# T2 construct: purchased Carna Biosciences
# Protocol: as §1, §2
# CDK6-Cyclin D3 [2] = experiment: as above; type: biochemical
# Protocol: as §1, §2
# CDK9-Cyclin T1 = biological target: T3, CDK9-Cyclin T1 (Homo sapiens, UniProt P50750); experiment: FRET-based LANCE Ultra in vitro enzymatic kinase assay, CDK9; type: biochemical; details: CDK9 versus other CDKs
# T3 construct: purchased Invitrogen
# Protocol: as §1, §2
# [3] = tested on: panel of 219 recombinant kinases; experiment: Broad in vitro selectivity kinase profiling; type: biochemical; details: 1 μM LDC526, 219 kinases
# Protocol: IC50 values for CDK inhibitors were determined using the fluorescence resonance energy transfer (FRET)-based LANCE Ultra KinaSelect Ser/Thr kit (Perkin Elmer). Kinase activity and inhibition were measured according to the manufacturer’s instructions and as previously described. […] Subsequently, phosporylation was detected by addition of specific europium (Eu)-labeled anti-phospho-antibodies (2 nM), which upon binding to the phospho-peptide give rise to a FRET signal. FRET signals were recorded in a time-resolved manner in a Perkin Elmer EnVision reader. Purified cyclin-kinase pairs were obtained from the following suppliers: Carna Biosciences (CDK1-Cyclin B1, CDK6-Cyclin D3, CDK7-Cyclin H-MAT1), ProQinase (CDK2-Cyclin A) and Invitrogen (CDK9-Cyclin T1). Broad selectivity kinase in vitro profiling with LDC526 was carried out using n=219 recombinant kinases (Millipore/Merck, Darmstadt, Germany).
# [4] = tested on: non-malignant normal donor B cells; experiment: Normal donor B cell viability (Annexin V/DAPI, absolute counts); type: cell-based; details: Homo sapiens, read-out: IC50, viable non-malignant B cells
# Protocol: The MEC-1 cell line was obtained from the DSMZ (Braunschweig, Germany) and was cultured in RPMI (10% fetal bovine serum). A LDC526 stock solution was prepared with DMSO, diluted and added to the cultures to reach the specified concentrations. Samples (percentage of CD19+CD5+ CLL cells >90%) of n=37 CLL patients (Table 1) and n=6 healthy normal donor controls were used for experiments after obtaining informed consent according to institutional guidelines, approved by the Ethics Commission of the University of Essen-Duisburg. Peripheral blood mononuclear cells (PBMC) were isolated using Lymphoprep ([…] Technologies, Cologne, Germany) density gradient centrifugation and were used directly for NSG transplantation or in vitro experiments. Untouched normal donor B cells were isolated with a B cell isolation kit (Miltenyi, Bergisch Gladbach, Germany) according to the manufacturer’s instructions. […]
# Apoptosis and cell death were determined by using Annexin V (BD Biosciences, Heidelberg, Germany) and 4′,6-Diamidin-2-phenylindol (DAPI, Sigma-Aldrich) staining. […] Flow cytometric data were analyzed with BD FACSDiva or FlowJo software (FLOWJO, LLC, Ashland, OR, USA). […]
# Data were analyzed with GraphPad Prism 7 software. Differences were assessed by unpaired or paired Student t tests if not indicated otherwise. […]
# T3 sequence (P50750 whole entry): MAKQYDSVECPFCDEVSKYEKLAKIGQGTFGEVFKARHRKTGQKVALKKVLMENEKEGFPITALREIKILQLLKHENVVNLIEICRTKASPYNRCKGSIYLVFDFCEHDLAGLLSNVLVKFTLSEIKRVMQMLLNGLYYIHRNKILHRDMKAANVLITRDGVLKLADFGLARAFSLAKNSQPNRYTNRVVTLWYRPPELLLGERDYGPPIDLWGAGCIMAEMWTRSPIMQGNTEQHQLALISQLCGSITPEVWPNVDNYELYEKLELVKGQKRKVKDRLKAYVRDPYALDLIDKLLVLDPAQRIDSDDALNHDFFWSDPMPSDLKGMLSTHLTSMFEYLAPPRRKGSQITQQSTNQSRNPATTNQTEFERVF
# T3 sequence (O60563 whole entry partner): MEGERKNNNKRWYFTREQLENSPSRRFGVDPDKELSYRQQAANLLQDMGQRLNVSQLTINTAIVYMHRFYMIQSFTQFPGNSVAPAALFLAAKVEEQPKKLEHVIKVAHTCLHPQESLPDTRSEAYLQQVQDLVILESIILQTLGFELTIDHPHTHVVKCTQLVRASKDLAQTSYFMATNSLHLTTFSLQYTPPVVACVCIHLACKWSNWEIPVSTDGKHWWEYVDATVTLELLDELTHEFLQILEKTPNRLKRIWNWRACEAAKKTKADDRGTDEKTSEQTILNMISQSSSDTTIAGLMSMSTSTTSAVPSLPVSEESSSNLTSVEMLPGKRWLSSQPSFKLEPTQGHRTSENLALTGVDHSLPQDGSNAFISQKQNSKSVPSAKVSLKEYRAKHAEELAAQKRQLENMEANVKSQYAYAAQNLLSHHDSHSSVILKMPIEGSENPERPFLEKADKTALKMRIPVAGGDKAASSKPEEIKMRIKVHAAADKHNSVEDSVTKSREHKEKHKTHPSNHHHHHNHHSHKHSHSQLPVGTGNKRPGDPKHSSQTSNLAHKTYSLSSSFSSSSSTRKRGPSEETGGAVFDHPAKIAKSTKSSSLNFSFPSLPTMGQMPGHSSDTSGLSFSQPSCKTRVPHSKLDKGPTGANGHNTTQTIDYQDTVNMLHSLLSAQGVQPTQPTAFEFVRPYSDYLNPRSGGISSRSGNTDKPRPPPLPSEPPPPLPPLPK
# T2 sequence (Q00534 whole entry): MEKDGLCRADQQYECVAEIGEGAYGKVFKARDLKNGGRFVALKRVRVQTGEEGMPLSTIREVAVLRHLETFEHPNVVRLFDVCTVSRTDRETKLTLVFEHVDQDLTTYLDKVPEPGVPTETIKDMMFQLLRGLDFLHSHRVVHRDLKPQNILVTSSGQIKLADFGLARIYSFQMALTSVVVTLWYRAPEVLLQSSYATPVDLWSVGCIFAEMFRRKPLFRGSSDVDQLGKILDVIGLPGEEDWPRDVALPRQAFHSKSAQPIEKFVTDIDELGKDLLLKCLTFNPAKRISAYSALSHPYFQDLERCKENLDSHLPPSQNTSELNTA
# T2 sequence (P30281 whole entry partner): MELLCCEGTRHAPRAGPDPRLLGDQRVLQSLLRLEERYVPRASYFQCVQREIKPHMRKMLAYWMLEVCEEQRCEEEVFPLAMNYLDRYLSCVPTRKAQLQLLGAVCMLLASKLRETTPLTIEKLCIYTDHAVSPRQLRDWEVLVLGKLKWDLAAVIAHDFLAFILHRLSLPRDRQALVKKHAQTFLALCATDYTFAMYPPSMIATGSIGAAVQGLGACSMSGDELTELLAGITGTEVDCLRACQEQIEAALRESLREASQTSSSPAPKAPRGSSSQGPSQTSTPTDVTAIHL
smiles,measurement,setting,value
"COc1cc(F)ccc1-c1ncnc(Nc2cccc(CS(N)(=O)=O)c2)n1 [LDC526, (3-((4-(4-fluoro-2-methoxyphenyl)-1,3,5-triazin-2-yl)amino)phenyl)methane-sulfonamide]",selectivity versus CDK9 compared to CDK2,CDK2-Cyclin A,52 fold
same,IC50,CDK6-Cyclin D3 [1],> 10000 nM
same,selectivity versus CDK9 compared to CDK6,CDK6-Cyclin D3 [2],> 900 fold
same,selectivity against other CDKs,CDK9-Cyclin T1,at least 50 fold
same,share of tested kinases still displaying an activity of greater than 80%,[3],More than 85%
same,IC50,[4]; 24 hours incubation,900 nM
same,IC50,[4]; 48 hours incubation,1480 nM
